According to patent US6180388A, “Enzymes and micro organisms with amidase activity which hydrolyze polyamides” (Rhone-Poulenc Fibres et Polymeres S.A., priority 1995, dated 2001):

What was measured:
[1] = system: Comamonas acidovorans N 12; assay: Enzymatic hydrolysis of PA 6.6 oligomers, activity of the wild-type microorganism; type: cell-based; conditions: 28° C., 10.5 mmol/l phosphate buffer pH 7.5
Source text: 2.2 ENZYMATIC HYDROLYSIS--MEASUREMENT OF ACTIVITY OF THE WILD-TYPE MICROORGANISM: […]

[2] = polyamide 66 labeled with carbon 14; cited from earlier work

NCCCCCCNC(=O)CCCCC(=O)O [AB]
hydrolysis AB → A + B ([1]; substrate 1.4 g/l): 280 mg of A/h.g of dry cells

O=C(O)CCCCC(=O)NCCCCCCNC(=O)CCCCC(=O)O [ABA]
hydrolysis ABA → AB + A ([1]; substrate 2.6 g/l): 215 mg of AB/h.g of dry cells

trypsin [reference compound]
degradation of polyamide 66 [2]: degrade polyamide 66 slightly

NCCCCCCNC(=O)CCCCC(=O)NCCCCCCNC(=O)CCCCC(=O)O [ABAB]
hydrolysis ABAB → BAB + A ([1]; substrate 1.4 g/l): 410 mg of BAB/h.g of dry cells

B1: papain: known enzyme of the prior art (protein, UniProt P00784 134-345, looked up)
Papain: IPEYVDWRQKGAVTPVKNQGSCGSCWAFSAVVTIEGIIKIRTGNLNEYSEQELLDCDRRSYGCNGGYPWSALQLVAQYGIHYRNTYPYEGVQRYCRSREKGPYAAKTDGVRQVQPYNEGALLYSIANQPVSVVLEAAGKDFQLYRGGIFVGPCGNKVDHAVAAVGYGPNYILIKNSWGTGWGENGYIRIKRGTGNSYGVCGLYTSSFYPVKN
degradation of polyamide 66 [2]: degrade polyamide 66 slightly
